# US12661359B2 (Madrigal Pharmaceuticals, Inc., priority 2021, dated 2026)
# Columns and labels:
# [1] = test system: patients with heterozygous familial hypercholesterolemia (HeFH); test: Phase 2 trial MGL-3196-06 (NCT03038022) in HeFH patients; format: in vivo, human; conditions: MGL-3196 100 mg once daily, 12 weeks
# Procedure: A Phase 2 clinical trial was conducted in 116 patients with proven heterozygous familial hypercholesterolemia (HeFH). The primary endpoint was reduction in LDL-C compared with placebo and secondary endpoints included effects on additional lipids and lipoproteins.
# MGL-3196-06 (NCT03038022) was a 12-week multicenter, randomized, double blind, placebo-controlled trial in HeFH patients not at LDL-C target on maximally tolerated statins. Patients received MGL-3196 100 mg or placebo once daily for 12 weeks (in a 2:1 ratio) in addition to their LDL-C lowering regimen.
# [2] = molecular target: T1, BCRP (Homo sapiens, UniProt Q9UNQ0); test: BCRP inhibition and DDI R-value assessment; format: in vitro ADME
# T1 sequence (Q9UNQ0 1-655): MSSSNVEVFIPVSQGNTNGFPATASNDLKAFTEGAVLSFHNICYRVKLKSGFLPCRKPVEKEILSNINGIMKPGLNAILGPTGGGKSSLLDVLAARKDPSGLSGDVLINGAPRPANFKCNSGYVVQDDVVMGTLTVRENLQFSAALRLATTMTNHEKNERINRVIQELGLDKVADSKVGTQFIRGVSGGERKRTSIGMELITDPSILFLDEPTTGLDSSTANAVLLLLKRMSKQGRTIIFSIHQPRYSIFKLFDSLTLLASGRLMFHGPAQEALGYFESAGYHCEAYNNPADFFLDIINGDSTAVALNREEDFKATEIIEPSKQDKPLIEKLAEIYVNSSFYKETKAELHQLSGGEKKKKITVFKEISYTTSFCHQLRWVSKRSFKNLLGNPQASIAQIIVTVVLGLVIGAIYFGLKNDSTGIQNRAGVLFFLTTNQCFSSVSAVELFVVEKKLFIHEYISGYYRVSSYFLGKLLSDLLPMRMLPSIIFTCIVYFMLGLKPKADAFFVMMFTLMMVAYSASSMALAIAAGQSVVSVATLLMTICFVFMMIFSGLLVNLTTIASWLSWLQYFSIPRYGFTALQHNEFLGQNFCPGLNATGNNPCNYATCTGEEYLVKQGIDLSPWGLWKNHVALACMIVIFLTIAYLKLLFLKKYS
# Source text: (§1) Based on the predicted gut-wall BCRP interaction (R=33.5), there is a possible contribution of gut BCRP inhibition to drug interactions.
# [3] = molecular target: P-gp (Homo sapiens, UniProt P08183); test: P-gp inhibition; format: in vitro ADME
# P-gp, sequence (P08183 whole entry): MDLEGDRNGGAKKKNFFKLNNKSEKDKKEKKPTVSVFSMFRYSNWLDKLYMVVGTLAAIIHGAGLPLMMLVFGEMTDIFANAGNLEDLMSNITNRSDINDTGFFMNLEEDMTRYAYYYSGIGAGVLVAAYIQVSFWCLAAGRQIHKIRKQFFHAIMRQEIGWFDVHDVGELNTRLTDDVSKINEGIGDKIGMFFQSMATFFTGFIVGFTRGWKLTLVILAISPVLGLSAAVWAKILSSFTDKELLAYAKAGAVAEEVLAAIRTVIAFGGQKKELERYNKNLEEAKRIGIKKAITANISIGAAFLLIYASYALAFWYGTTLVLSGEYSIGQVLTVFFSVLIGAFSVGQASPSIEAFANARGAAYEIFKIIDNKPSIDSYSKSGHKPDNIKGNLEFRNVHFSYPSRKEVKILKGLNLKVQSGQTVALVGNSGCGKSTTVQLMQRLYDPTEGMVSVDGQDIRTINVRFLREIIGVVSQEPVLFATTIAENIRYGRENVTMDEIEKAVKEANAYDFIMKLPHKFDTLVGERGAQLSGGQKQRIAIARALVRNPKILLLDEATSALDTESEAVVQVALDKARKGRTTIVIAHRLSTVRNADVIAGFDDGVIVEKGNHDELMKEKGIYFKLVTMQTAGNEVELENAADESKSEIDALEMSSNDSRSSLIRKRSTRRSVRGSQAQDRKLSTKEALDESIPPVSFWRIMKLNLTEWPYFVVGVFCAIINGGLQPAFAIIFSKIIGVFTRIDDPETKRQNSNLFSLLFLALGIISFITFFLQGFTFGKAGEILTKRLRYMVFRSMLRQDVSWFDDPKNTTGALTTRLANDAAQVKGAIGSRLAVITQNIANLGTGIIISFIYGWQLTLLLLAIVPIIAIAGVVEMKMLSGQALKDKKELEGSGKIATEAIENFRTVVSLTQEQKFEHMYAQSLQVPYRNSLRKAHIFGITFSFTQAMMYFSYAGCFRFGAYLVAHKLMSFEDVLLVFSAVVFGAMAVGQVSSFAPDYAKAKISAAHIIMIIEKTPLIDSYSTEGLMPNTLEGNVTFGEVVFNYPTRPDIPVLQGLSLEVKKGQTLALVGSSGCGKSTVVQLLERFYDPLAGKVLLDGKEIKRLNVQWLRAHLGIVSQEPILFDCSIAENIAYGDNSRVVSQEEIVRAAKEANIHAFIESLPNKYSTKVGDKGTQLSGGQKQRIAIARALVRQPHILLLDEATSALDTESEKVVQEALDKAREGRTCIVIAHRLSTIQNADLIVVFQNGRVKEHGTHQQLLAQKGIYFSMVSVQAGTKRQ
# Source text: as §1
# [4] = molecular target: T2, human OSTαβ (Homo sapiens, UniProt Q86UW1+Q86UW2); test: OSTαβ-mediated transport in transfected MDCK-II cells versus control cells
# T2 sequence (Q86UW1 1-340): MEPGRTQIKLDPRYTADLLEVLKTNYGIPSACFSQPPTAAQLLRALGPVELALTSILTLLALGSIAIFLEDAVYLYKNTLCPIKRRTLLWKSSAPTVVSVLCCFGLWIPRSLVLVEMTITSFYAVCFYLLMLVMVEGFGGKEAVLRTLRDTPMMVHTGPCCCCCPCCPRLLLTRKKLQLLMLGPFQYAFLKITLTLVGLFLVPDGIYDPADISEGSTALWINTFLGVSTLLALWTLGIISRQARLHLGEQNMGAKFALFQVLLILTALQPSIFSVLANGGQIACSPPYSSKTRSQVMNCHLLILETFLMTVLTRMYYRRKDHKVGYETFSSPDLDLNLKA
# T2 sequence (Q86UW2 1-128): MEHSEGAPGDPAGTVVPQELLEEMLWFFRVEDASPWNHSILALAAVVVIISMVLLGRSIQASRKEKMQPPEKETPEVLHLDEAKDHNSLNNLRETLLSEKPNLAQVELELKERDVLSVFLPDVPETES
# Procedure: Transfected cells and control cells are both exposed to the compound, and the concentration of the compound in the transfected cells and the control cells are then measured. An uptake ratio can then be calculated to quantify the difference of the concentration, indicating whether OSTαβ mediates the transport of the compound.
# MGL-3196 was tested as a potential substrate for human OSTαβ-mediated transport.
# [5] = human, in vivo
# [6] = test system: patients with NASH; conditions: cited from earlier work
# [7] = cited from earlier work
# [8] = clinical; conditions: human, in vivo; for AUC(0-inf): AUCinf; for AUC(0-t): AUClast
smiles,measurement,setting,value
"CC(C)c1cc(Oc2c(Cl)cc(-n3nc(C#N)c(=O)[nH]c3=O)cc2Cl)n[nH]c1=O [MGL-3196, 2-(3,5-dichloro-4-((5-isopropyl-6-oxo-1,6-dihydropyridazin-3-yl)oxy)phenyl)-3,5-dioxo-2,3,4,5-tetrahydro-1,2,4-triazine-6-carbonitrile]",LDL-C and other atherogenic lipids lowering in patients with HeFH,[1]; versus placebo,statistically significantly lowers
same,Apolipoprotein B (ApoB) lowering,"[1]; versus placebo, p<0.0001",−18-29%
same,Apolipoprotein CIII (Apo CIII) lowering,"[1]; versus placebo, p<0.0001",−22%
same,Lipoprotein (a) (Lp(a)) lowering,"[1]; versus placebo, p<0.0001",−26-33%
same,Triglyceride (TG) lowering,"[1]; versus placebo, p<0.0001",−25-31%
same,LDL-C lowering compared to placebo,[1]; prespecified group of patients intolerant of high intensity statin doses,28.5%
same,Inhibition of BCRP (in words),[2],moderate inhibitor
same,DDI R-value,"[2]; Biliary/renal/BBB, [Ifree]/IC50 ≥ 0.02",0.004
same,DDI R-value,"[2]; Intestine, [I2]/IC50 ≥ 10, predicted gut-wall BCRP interaction",33.5
same,Inhibition of P-gp (in words),[3],not an inhibitor
same,Substrate for human OSTαβ (conclusion in words),[4]; MDCK,may be a substrate
same,Accumulation in control cells,"[4]; dog, MDCK, 1 μM",1.91 ± 0.220 pmol/min/cm^2
same,Accumulation in control cells,"[4]; dog, MDCK, 10 μM",11.3 ± 0.500 pmol/min/cm^2
same,Accumulation in control cells,"[4]; dog, MDCK, 100 μM",49.3 ± 6.28 pmol/min/cm^2
same,Accumulation in transporter cells,"[4]; human, MDCK, 1 μM",2.58 ± 0.103 pmol/min/cm^2
same,Net accumulation,"[4]; human, MDCK, 1 μM",0.670 ± 0.103 pmol/min/cm^2
same,Accumulation in transporter cells,"[4]; human, MDCK, 10 μM",21.9 ± 0.810 pmol/min/cm^2
same,Net accumulation,"[4]; human, MDCK, 10 μM",10.6 ± 0.810 pmol/min/cm^2
same,Accumulation in transporter cells,"[4]; human, MDCK, 100 μM",137 ± 12.8 pmol/min/cm^2
same,Net accumulation,"[4]; human, MDCK, 100 μM",88.1 ± 12.8 pmol/min/cm^2
same,Safety issues such as liver enzyme or creatine kinase (CK) elevations,[5],no safety issues were observed
same,Reducing hepatic fat compared to placebo,[6]; after 12 weeks and 36 weeks of treatment,effective
same,Improving markers of liver injury and fibrosis compared to placebo,[6],effective
same,"Reducing atherogenic lipids and lipoproteins (LDL cholesterol, apolipoprotein B, triglycerides, lipoprotein(a), apolipoprotein CIII) compared to placebo",[6],effective
same,Effect on elevated liver enzymes,[7]; NASH patients,reduces elevated liver enzymes
same,Safety profile,[7]; in vivo,clean safety profile
same,"Suppression of the central thyroid axis, THR-α effects on heart rate or bone",[7]; in vivo,neither suppression of the central thyroid axis nor THR-α effects on heart rate or bone
"CC(C)c1nc(N(C)S(C)(=O)=O)nc(-c2ccc(F)cc2)c1/C=C/[C@@H](O)C[C@@H](O)CC(=O)O [rosuvastatin, (E)-7-[4-(4-fluorophenyl)-6-isopropyl-2-[methyl(methylsulfonyl)amino]pyrimidin-5-yl](3R,5S)-3,5-dihydroxyhept-6-enoic acid, reference compound]",Accumulation in control cells,"[4]; dog, MDCK, 1 μM",0.0557 ± 0.00359 pmol/min/cm^2
same,Accumulation in control cells,"[4]; dog, MDCK, 10 μM",0.297 ± 0.0377 pmol/min/cm^2
same,Accumulation in control cells,"[4]; human, MDCK, 0.1 μM",0.00664 ± 0.00215 pmol/min/cm^2
same,Accumulation in transporter cells,"[4]; human, MDCK, 0.1 μM",0.00894 ± 0.000845 pmol/min/cm^2
same,Net accumulation,"[4]; human, MDCK, 0.1 μM",0.0023 ± 0.000845 pmol/min/cm^2
same,Accumulation in transporter cells,"[4]; human, MDCK, 1 μM",0.0575 ± 0.00167 pmol/min/cm^2
same,Net accumulation,"[4]; human, MDCK, 1 μM",0.00176 ± 0.00167 pmol/min/cm^2
same,Accumulation in transporter cells,"[4]; human, MDCK, 10 μM",0.459 ± 0.0599 pmol/min/cm^2
same,Net accumulation,"[4]; human, MDCK, 10 μM",0.162 ± 0.0599 pmol/min/cm^2
same,"Cmax, geometric mean",[5],3.11 ng/mL
same,"% AUCexts, mean",[5]; 10 mg,10.6%
same,"Cmax, mean",[5]; 10 mg,3.62 ng/mL
same,"T1/2, mean",[5]; 10 mg,18.2 h
same,AUC(0-inf),"[8]; 10 mg, mean",51.7 ng·h/mL
same,AUC(0-t),"[8]; 10 mg, mean",44.5 ng·h/mL
same,Tmax,"[8]; 10 mg, Tmax, mean",4.56 h
same,AUC(0-inf),[8]; geometric mean,46.6 ng·h/mL
same,AUC(0-t),[8]; geometric mean,38 ng·h/mL
"C[C@H](CCC(=O)NCCS(=O)(=O)O)[C@H]1CC[C@H]2[C@@H]3[C@H](O)C[C@@H]4C[C@H](O)CC[C@]4(C)[C@H]3C[C@H](O)[C@]12C [taurocholic acid, reference compound]",Net accumulation,[4]; 1 μM substrate,0.0809 ± 0.0105 pmol/min/cm^2
same,Accumulation in transporter cells,"[4]; 1 μM substrate, OSTαβ MDCK-II cells",0.109 ± 0.0105 pmol/min/cm^2
